Assay results reported in US12570675B2, “Boronic acid compounds” (LG CHEM, LTD., priority 2020, dated 2026).

The compounds below were run against Proteasome chymotrypsin-like activity (S26 protein from RPMI8226 cells) (Homo sapiens, UniProt P28074). Settings: S26 protein from RPMI8226 cell extract 2 ug/well, substrate 20 uM, 37° C., 90 minutes; read-out: Proteasome chymotrypsin-like activity inhibition IC50.
Assay type: biochemical
How it was run: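 S26 proteasome fraction from homogenized RPMI8226 myeloma cells in 20 mM Tris-HCl pH 8.0 (2 ug extract/well) incubated 90 min at 37 °C with compound serially diluted from 10 uM (0.5% DMSO).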

Chain of Proteasome chymotrypsin-like activity (S26 protein from RPMI8226 cells) (P28074 60-263 limits assumed): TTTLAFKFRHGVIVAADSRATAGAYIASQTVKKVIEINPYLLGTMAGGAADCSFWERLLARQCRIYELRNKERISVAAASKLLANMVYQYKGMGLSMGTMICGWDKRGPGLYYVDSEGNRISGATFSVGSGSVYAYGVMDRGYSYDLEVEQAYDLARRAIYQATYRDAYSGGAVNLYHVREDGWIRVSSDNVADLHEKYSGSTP

`Cc1cccc(CC2(C(=O)N[C@@H](CC(C)C)B(O)O)CC(CNC(=O)c3cc(C(C)(C)C)nn3C(C)C)=NO2)c1` (stereo partly drawn) [Example 237, ((1R)-1-(3-((3-(tert-butyl)-1-isopropyl-1H-pyrazol-5-carboxamido)methyl)-5-(3-methylbenzyl)-4,5-dihydroisoxazol-5-carboxamido)-3-methylbutyl)boronic acid] and `Cc1cccc(CC2(C(=O)N[C@@H](CC(C)C)B(O)O)CC(CNC(=O)c3ccnn3C(C)C)=NO2)c1` (stereo partly drawn) [Example 242, ((1R)-1-(3-((1-isopropyl-1H-pyrazol-5-carboxamido)methyl)-5-(3-methylbenzyl)-4,5-dihydroisoxazol-5-carboxamido)-3-methylbutyl)boronic acid] cannot be ordered by IC50: under 10 nM for the first, under 10 nM for the second.

`Cc1cccc(CC2(C(=O)N[C@@H](CC(C)C)B(O)O)CC(CNC(=O)c3cccn4ccnc34)=NO2)c1` (stereo partly drawn) [Example 238, ((1R)-1-(3-((imidazo[1,2-a]pyridin-8-carboxamido)methyl)-5-(3-methylbenzyl)-4,5-dihydroisoxazol-5-carboxamido)-3-methylbutyl)boronic acid] and `Cc1cccc(CC2(C(=O)N[C@@H](CC(C)C)B(O)O)CC(CNC(=O)c3cc(-c4ccccn4)nn3C(C)C)=NO2)c1` (stereo partly drawn) [Example 245, ((1R)-1-(3-((1-isopropyl-3-(pyridin-2-yl)-1H-pyrazol-5-carboxamido)methyl)-5-(3-methylbenzyl)-4,5-dihydroisoxazol-5-carboxamido)-3-methylbutyl)boronic acid] cannot be ordered by IC50: under 10 nM for the first, under 10 nM for the second.

`COc1cccc(CC2(C(=O)N[C@@H](CC(C)C)B(O)O)CC(CNC(=O)c3ccnn3C(C)C)=NO2)c1` (stereo partly drawn) [Example 239, ((1R)-1-(3-((1-isopropyl-1H-pyrazol-5-carboxamido)methyl)-5-(3-methoxybenzyl)-4,5-dihydroisoxazol-5-carboxamido)-3-methylbutyl)boronic acid] and `CC(C)C[C@H](NC(=O)C1(Cc2cccc(Cl)c2)CC(CNC(=O)c2ccnn2C(C)C)=NO1)B(O)O` (stereo partly drawn) [Example 250, ((1R)-1-(5-(3-chlorobenzyl)-3-((1-isopropyl-1H-pyrazol-5-carboxamido)methyl)-4,5-dihydroisoxazol-5-carboxamido)-3-methylbutyl)boronic acid] cannot be ordered by IC50: under 10 nM for the first, under 10 nM for the second.

`COc1cccc(CC2(C(=O)N[C@@H](CC(C)C)B(O)O)CC(CNC(=O)c3cc(C)nn3C3CCCC3)=NO2)c1` (stereo partly drawn) [Example 240, ((1R)-1-(3-((1-cyclopentyl-3-methyl-1H-pyrazol-5-carboxamido)methyl)-5-(3-methoxybenzyl)-4,5-dihydroisoxazol-5-carboxamido)-3-methylbutyl)boronic acid] and `Cc1cccc(CC2(C(=O)N[C@@H](CC(C)C)B(O)O)CC(CNC(=O)c3cc(C)nn3C3CCCC3)=NO2)c1` (stereo partly drawn) [Example 243, ((1R)-1-(3-((1-cyclopentyl-3-methyl-1H-pyrazol-5-carboxamido)methyl)-5-(3-methylbenzyl)-4,5-dihydroisoxazol-5-carboxamido)-3-methylbutyl)boronic acid] cannot be ordered by IC50: under 10 nM for the first, under 10 nM for the second.

`COc1cccc(CC2(C(=O)N[C@@H](CC(C)C)B(O)O)CC(CNC(=O)c3cc(-c4ccccn4)nn3C(C)C)=NO2)c1` (stereo partly drawn) [Example 241, ((1R)-1-(3-((1-isopropyl-3-(pyridin-2-yl)-1H-pyrazol-5-carboxamido)methyl)-5-(3-methoxybenzyl)-4,5-dihydroisoxazol-5-carboxamido)-3-methylbutyl)boronic acid] and `CC(C)C[C@H](NC(=O)C1(Cc2cccc(Cl)c2)CC(CNC(=O)c2cc(-c3ccccc3)nn2C(C)C)=NO1)B(O)O` (stereo partly drawn) [Example 249, ((1R)-1-(5-(3-chlorobenzyl)-3-((1-isopropyl-3-phenyl-1H-pyrazol-5-carboxamido)methyl)-4,5-dihydroisoxazol-5-carboxamido)-3-methylbutyl)boronic acid] cannot be ordered by IC50: under 10 nM for the first, under 10 nM for the second.

`Cc1cccc(CC2(C(=O)N[C@@H](CC(C)C)B(O)O)CC(CNC(=O)c3c(Cl)c(C)nn3C(C)C)=NO2)c1` (stereo partly drawn) [Example 244, ((1R)-1-(3-((4-chloro-1-isopropyl-3-methyl-1H-pyrazol-5-carboxamido)methyl)-5-(3-methylbenzyl)-4,5-dihydroisoxazol-5-carboxamido)-3-methylbutyl)boronic acid] and `Cc1nn(C(C)C)c(C(=O)NCC2=NOC(Cc3cccc(Cl)c3)(C(=O)N[C@@H](CC(C)C)B(O)O)C2)c1Cl` (stereo partly drawn) [Example 248, ((1R)-1-(3-((4-chloro-1-isopropyl-3-methyl-1H-pyrazol-5-carboxamido)methyl)-5-(3-chlorobenzyl)-4,5-dihydroisoxazol-5-carboxamido)-3-methylbutyl)boronic acid] cannot be ordered by IC50: under 10 nM for the first, under 10 nM for the second.

`Cc1cccc(CC2(C(=O)N[C@@H](CC(C)C)B(O)O)CC(CNC(=O)c3cc(C)nn3C3CCOCC3)=NO2)c1` (stereo partly drawn) [Example 251, ((1R)-3-methyl-1-(3-((3-methyl-1-(tetrahydro-2H-pyran-4-yl)-1H-pyrazol-5-carboxamido)methyl)-5-(3-methylbenzyl)-4,5-dihydroisoxazol-5-carboxamido)butyl)boronic acid] and `Cc1cccc(COCC2=NOC(Cc3ccccc3)(C(=O)N[C@@H](CC(C)C)B(O)O)C2)c1` (some centres unmarked) [Example 270] cannot be ordered by IC50: under 10 nM for the first, under 10 nM for the second.

`CC(C)C[C@H](NC(=O)C1(Cc2ccccc2)CC(CCNC(=O)c2nccc3ccccc23)=NO1)B(O)O` (some centres unmarked) [Example 253] and `CC(C)C[C@H](NC(=O)C1(Cc2ccccc2)CC(COc2ccc3ccccc3c2)=NO1)B(O)O` (some centres unmarked) [Example 262] cannot be ordered by IC50: under 10 nM for the first, under 100 nM for the second.

`CC(C)C[C@H](NC(=O)C1(Cc2ccccc2)CC(COc2ccccc2)=NO1)B(O)O` (some centres unmarked) [Example 254] and `CC(C)C[C@H](NC(=O)C1(Cc2ccccc2)CC(COc2cccc(Cl)c2)=NO1)B(O)O` (some centres unmarked) [Example 258] cannot be ordered by IC50: under 10 nM for the first, under 10 nM for the second.

`O=C(N[C@@H](Cc1ccccc1)B(O)O)C1(Cc2ccccc2)CC(COc2ccccc2)=NO1` (stereo partly drawn) [Example 255, ((1R)-1-(5-benzyl-3-(phenoxymethyl)-4,5-dihydroisoxazol-5-carboxamido)-2-phenylethyl)boronic acid] and `O=C(N[C@@H](Cc1ccccc1)B(O)O)C1(Cc2ccccc2)CC(COc2cccc(Cl)c2)=NO1` (stereo partly drawn) [Example 259, ((1R)-1-(5-benzyl-3-((3-chlorophenoxy)methyl)-4,5-dihydroisoxazol-5-carboxamido)-2-phenylethyl)boronic acid] cannot be ordered by IC50: under 25 nM for the first, under 50 nM for the second.

`CC(C)C[C@H](NC(=O)C1(Cc2ccccc2)CC(COCc2cccc(Cl)c2)=NO1)B(O)O` (some centres unmarked) [Example 260] and `CC(C)C[C@H](NC(=O)C1(Cc2ccccc2)CC(COCc2cccc(C#N)c2)=NO1)B(O)O` (some centres unmarked) [Example 264] cannot be ordered by IC50: under 50 nM for the first, under 10 nM for the second.

`O=C(N[C@@H](Cc1ccccc1)B(O)O)C1(Cc2ccccc2)CC(COCc2cccc(Cl)c2)=NO1` (stereo partly drawn) [Example 261, ((1R)-1-(5-benzyl-3-(((3-chlorobenzyl)oxy)methyl)-4,5-dihydroisoxazol-5-carboxamido)-2-phenylethyl)boronic acid] and `Cc1cccc(COCC2=NOC(Cc3ccccc3)(C(=O)N[C@@H](Cc3ccccc3)B(O)O)C2)c1` (stereo partly drawn) [Example 271, ((1R)-1-(5-benzyl-3-(((3-methylbenzyl)oxy)methyl)-4,5-dihydroisoxazol-5-carboxamido)-2-phenylethyl)boronic acid] cannot be ordered by IC50: under 25 nM for the first, under 10 nM for the second.

`O=C(N[C@@H](Cc1ccccc1)B(O)O)C1(Cc2ccccc2)CC(COc2ccc3ccccc3c2)=NO1` (stereo partly drawn) [Example 263, ((1R)-1-(5-benzyl-3-((naphthalen-2-yloxy)methyl)-4,5-dihydroisoxazol-5-carboxamido)-2-phenylethyl)boronic acid] and `COc1ccc(COCC2=NOC(Cc3ccccc3)(C(=O)N[C@@H](Cc3ccccc3)B(O)O)C2)cc1` (stereo partly drawn) [Example 275, ((1R)-1-(5-benzyl-3-(((4-methoxybenzyl)oxy)methyl)-4,5-dihydroisoxazol-5-carboxamido)-2-phenylethyl)boronic acid] cannot be ordered by IC50: under 50 nM for the first, under 50 nM for the second.

`N#Cc1cccc(COCC2=NOC(Cc3ccccc3)(C(=O)N[C@@H](Cc3ccccc3)B(O)O)C2)c1` (stereo partly drawn) [Example 265, ((1R)-1-(5-benzyl-3-(((3-cyanobenzyl)oxy)methyl)-4,5-dihydroisoxazol-5-carboxamido)-2-phenylethyl)boronic acid] and `COc1cccc(COCC2=NOC(Cc3ccccc3)(C(=O)N[C@@H](Cc3ccccc3)B(O)O)C2)c1` (stereo partly drawn) [Example 273, ((1R)-1-(5-benzyl-3-(((3-methoxybenzyl)oxy)methyl)-4,5-dihydroisoxazol-5-carboxamido)-2-phenylethyl)boronic acid] cannot be ordered by IC50: under 10 nM for the first, under 10 nM for the second.

`CC(C)C[C@H](NC(=O)C1(Cc2ccccc2)CC(COCc2cccn3ccnc23)=NO1)B(O)O` (some centres unmarked) [Example 266] and `CC(C)C[C@H](NC(=O)C1(Cc2ccccc2)CC(COCc2ccccn2)=NO1)B(O)O` (some centres unmarked) [Example 268] cannot be ordered by IC50: under 10 nM for the first, under 10 nM for the second.

`O=C(N[C@@H](Cc1ccccc1)B(O)O)C1(Cc2ccccc2)CC(COCc2cccn3ccnc23)=NO1` (stereo partly drawn) [Example 267, ((1R)-1-(5-benzyl-3-((imidazo[1,2-a]pyridin-8-ylmethoxy)methyl)-4,5-dihydroisoxazol-5-carboxamido)-2-phenylethyl)boronic acid] and `O=C(N[C@@H](Cc1ccccc1)B(O)O)C1(Cc2ccccc2)CC(COCc2ccccn2)=NO1` (stereo partly drawn) [Example 269, ((1R)-1-(5-benzyl-3-((pyridin-2-ylmethoxy)methyl)-4,5-dihydroisoxazol-5-carboxamido)-2-phenylethyl)boronic acid] cannot be ordered by IC50: under 10 nM for the first, under 25 nM for the second.

`COc1cccc(COCC2=NOC(Cc3ccccc3)(C(=O)N[C@@H](CC(C)C)B(O)O)C2)c1` (some centres unmarked) [Example 272] and `COc1ccc(COCC2=NOC(Cc3ccccc3)(C(=O)N[C@@H](CC(C)C)B(O)O)C2)cc1` (some centres unmarked) [Example 274] cannot be ordered by IC50: under 10 nM for the first, under 100 nM for the second.

`Cc1cc(COCC2=NOC(Cc3ccccc3)(C(=O)N[C@@H](CC(C)C)B(O)O)C2)ccn1` (some centres unmarked) [Example 276] was tested, and the IC50 was under 10 nM.
